Assay results from US20230339886A1 (University of Florida Research Foundation, Incorporated, priority 2020, published 2023).
Where two headings read alike, the source gives them in different places.

Biological target: T1, REV-ERBα LBD (human; residues 281-614 Δ324-422) (Homo sapiens, UniProt P20393, DEL324-422)
T1 construct: 6×Histag-REV-ERBα LBD (human; residues 281-614 Δ324-422); made in house; host or cells: Escherichia coli
Assay: TR-FRET corepressor interaction assay (REV-ERBα LBD, FITC-SMRT peptide)
Format: biochemical
How it was run: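 Compound serial dilutions (in DMSO, triplicate) incubated 2 h at 4 °C; Tb donor excited at 340 nm, emission read at 495 nm and FITC acceptor at 520 nm. TR-FRET ratio (520/495 nm) plotted against ligand concentration and fitted to a sigmoidal dose-response curve.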

[1] = FITC-SMRT peptide, read-out: REVERBα agonism (EC50 class, FRET assay)
[2] = Table 2, read-out: REVERBα agonism (EC50 class, FRET assay)

T1 sequence (P20393 with tags, fused parts or gaps DEL324-422): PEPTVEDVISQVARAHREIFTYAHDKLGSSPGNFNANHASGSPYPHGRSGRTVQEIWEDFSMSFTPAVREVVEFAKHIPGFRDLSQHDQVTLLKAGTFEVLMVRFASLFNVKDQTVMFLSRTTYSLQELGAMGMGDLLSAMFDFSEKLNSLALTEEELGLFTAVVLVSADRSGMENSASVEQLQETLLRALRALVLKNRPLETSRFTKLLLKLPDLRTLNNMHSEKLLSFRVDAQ
T1 sequence (Q9Y618 2335-2356 partner limits assumed): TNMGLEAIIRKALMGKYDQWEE

| SMILES | EC50 [1] | EC50 [2] |
| --- | --- | --- |
| CC(C)C(=O)n1cc([C@H](NS(=O)(=O)C2CCC2)C(F)(F)F)c2ccc(-c3ccccc3C(F)(F)F)cc21 [Example 504, (S)—N-(2,2,2-trifluoro-1-(1-isobutyryl-6-(2-(trifluoromethyl)phenyl)-1H-indol-3-yl)ethyl)cyclobutanesulfonamide] | < 0.5 µM | – |
| CC(C)Cn1cc(CCNS(=O)(=O)N(C)C)c2ccc(NC(=O)Cc3ccccc3)cc21 [Compound 70, N-(3-{2-[(dimethylsulfamoyl)amino]ethyl}-1-(2-methylpropyl)-1H-indol-6-yl)-2-phenylacetamide] | – | > 3 µM |
| CC(C)(C)Cn1cc([C@H](NS(=O)(=O)C2CCC2)C(F)F)c2cc(F)c(-c3ccccc3C(F)(F)F)cc21 [Example 435, (S)—N-(2,2-difluoro-1-(5-fluoro-1-neopentyl-6-(2-(trifluoromethyl)phenyl)-1H-indol-3-yl)ethyl)cyclobutanesulfonamide] | < 0.5 µM | – |
| CC(C)S(=O)(=O)N[C@@H](c1cn(CC(C)(C)C)c2cc(-c3ccccc3C(F)(F)F)c(F)cc12)C(F)(F)F [Example 348, (S)—N-(2,2,2-trifluoro-1-(5-fluoro-1-neopentyl-6-(2-(trifluoromethyl)phenyl)-1H-indol-3-yl)ethyl)propane-2-sulfonamide] | – | 0.5 to 3 µM |
| CC(C)Cn1cc(CCNS(=O)(=O)N(C)C)c2ccc(NC(=O)c3ccccc3)cc21 [Compound 71] | – | > 3 µM |
| CC(C)Cc1cn(CCS(=O)(=O)C(C)C)c2ccc(Br)cc12 [Example 173, 5-bromo-3-isobutyl-1-(2-(isopropylsulfonyl)ethyl)-1H-indole] | – | 0.5 to 3 µM |
| CN(C)S(=O)(=O)NCCc1cn(C2CC2)c2cc(-c3ccncc3)ccc12 [Example 134, N′-{2-[6-(pyridin-4-yl)-1-cyclopropyl-1H-indol-3-yl]ethyl}-N,N-dimethylsulfuric diamide] | – | > 3 µM |
| CC(C)(C)Cn1cc([C@H](NS(=O)(=O)C2CC(F)C2)C(F)(F)F)c2ccc(-c3ccccc3C(F)(F)F)cc21 (stereo partly drawn) [Example 437, (S)-3-fluoro-N-(2,2,2-trifluoro-1-(1-neopentyl-6-(2-(trifluoromethyl)phenyl)-1H-indol-3-yl)ethyl)cyclobutane-1-sulfonamide] | 0.5 to 3 µM | – |
| CC(C)Cn1cc(CNS(=O)(=O)C(C)C)c2cc(F)c(-c3ccccc3C(F)(F)F)cc21 [Compound 269] | – | < 0.5 µM |
| CC(C)C(=O)n1cc(CNS(=O)(=O)N(C)C)c2ccc(-c3ccncc3)cc21 [Example 182, 1-(3-{[(dimethylsulfamoyl)amino]methyl}-6-(pyridin-4-yl)-1H-indol-1-yl)-2-methylpropan-1-one] | – | 0.5 to 3 µM |
| CC(C)(C)Cn1cc([C@H](NS(=O)(=O)C2CCC2)C(F)(F)F)c2cc(F)c(-c3cccc4c3CCCC4)cc21 [Example 479, N-[(1S)-1-[1-(2,2-dimethylpropyl)-5-fluoro-6-tetralin-5-yl-indol-3-yl]-2,2,2-trifluoro-ethyl]cyclobutanesulfonamide] | < 0.5 µM | – |
| CC(c1ccccc1)n1cc(CCNS(=O)(=O)N(C)C)c2ccc(Br)cc21 (stereo not shown) [Example 159, ({2-[6-bromo-1-(1-phenylethyl)-1H-indol-3-yl]ethyl}sulfamoyl)dimethylamine] | – | 0.5 to 3 µM |
| CN(C)S(=O)(=O)NCCc1cn(CC(F)(F)F)c2cc(Br)ccc12 [Example 158, ({2-[6-bromo-1-(2,2,2-trifluoroethyl)-1H-indol-3-yl]ethyl}sulfamoyl)dimethylamine] | – | 0.5 to 3 µM |
| CC(C)(C)Cn1cc([C@H](NS(=O)(=O)C2CC2)C(F)(F)F)c2cc(F)c(-c3c(F)cccc3C(F)(F)F)cc21 [Example 351, N-((1S)-2,2,2-trifluoro-1-(5-fluoro-6-(2-fluoro-6-(trifluoromethyl)phenyl)-1-neopentyl-1H-indol-3-yl)ethyl)cyclopropanesulfonamide] | – | < 0.5 µM |
| CN(C)S(=O)(=O)N(C)CCc1cn(C)c2cc(-c3ccncc3)ccc12 [Example 127, N′-{2-[6-(pyridin-4-yl)-1-methyl-1H-indol-3-yl]ethyl}-N′-methyl-N,N-dimethylsulfuric diamide] | – | 0.5 to 3 µM |
| CC(C)(C)Cn1cc([C@H](NS(=O)(=O)C2CCC2)C(F)(F)F)c2cc(F)c(-c3cnccc3C#N)cc21 [Example 441, (S)—N-(1-(6-(4-cyanopyridin-3-yl)-5-fluoro-1-neopentyl-1H-indol-3-yl)-2,2,2-trifluoroethyl)cyclobutanesulfonamide] | < 0.5 µM | – |
| CC(C)(C)Cn1cc([C@H](NS(=O)(=O)C2CC2)C(F)(F)F)c2ccc(-c3ccncc3C#N)cc21 [Example 384, (S)—N-(1-(6-(3-cyanopyridin-4-yl)-1-neopentyl-1H-indol-3-yl)-2,2,2-trifluoroethyl)cyclopropanesulfonamide] | – | < 0.5 µM |
| CCC(=O)n1cc(CNS(=O)(=O)N(C)C)c2ccc(-c3ccncc3)cc21 [Example 187, 1-(3-{[(dimethylsulfamoyl)amino]methyl}-6-(pyridin-4-yl)-1H-indol-1-yl)propan-1-one] | – | > 3 µM |
| CC(C)Cn1cc(CCNS(=O)(=O)N(C)C)c2ccc(-c3ncco3)cc21 [Compound 67, dimethyl({2-[1-(2-methylpropyl)-6-(1,3-oxazol-2-yl)-1H-indol-3-yl]ethyl}sulfamoyl)amine] | – | 0.5 to 3 µM |

| SMILES | EC50 [1] | EC50 [2] |
| --- | --- | --- |
| CC(C)(C)Cn1cc([C@H](NS(=O)(=O)C2CCC2)C(F)(F)F)c2ccc(-c3ccccc3C(F)(F)F)nc21 [Example 492, N-[(1S)-1-[1-(2,2-dimethylpropyl)-6-[2-(trifluoromethyl)phenyl]pyrrolo[2,3-b]pyridin-3-yl]-2,2,2-trifluoro-ethyl]cyclobutanesulfonamide] | < 0.5 µM | – |
| CC(C)S(=O)(=O)CCn1cc(CC(C)(C)C)c2cc(Br)ccc21 [Example 175, 5-bromo-1-(2-(isopropylsulfonyl)ethyl)-3-neopentyl-1H-indole] | – | > 3 µM |
| CC(C)Cn1cc(CNS(=O)(=O)C(C)C)c2cc(F)c(-c3ccncc3Cl)cc21 [Compound 268] | – | < 0.5 µM |
| CC(C)Cn1cc(CCNS(=O)(=O)N(C)C)c2ccc(Cl)cc21 [Example 109, ({2-[6-chloro-1-(2-methylpropyl)-1H-indol-3-yl]ethyl}sulfamoyl)dimethylamine] | – | < 0.5 µM |
| CC(=O)n1cc(CCNS(=O)(=O)N(C)C)c2ccc(-c3ccncc3)cc21 [Compound 42, 1-(3-{2-[(dimethylsulfamoyl)amino]ethyl}-6-(pyridin-4-yl)-1H-indol-1-yl)ethan-1-one] | – | > 3 µM |
| CC(C)Cn1cc(CCNS(=O)(=O)N(C)C)c2c(Br)cccc21 [Example 136, ({2-[4-bromo-1-(2-methylpropyl)-1H-indol-3-yl]ethyl}sulfamoyl)dimethylamine] | – | 0.5 to 3 µM |
| CC(C)(C)Cn1cc([C@H](NS(=O)(=O)C2CC2)C(F)(F)F)c2ccc(-c3ncccc3Cl)cc21 [Example 467, (S)—N-(1-(6-(3-chloropyridin-2-yl)-1-neopentyl-1H-indol-3-yl)-2,2,2-trifluoroethyl)cyclopropanesulfonamide] | 0.5 to 3 µM | – |
| CC(C)(C)Cn1cc([C@H](NS(=O)(=O)N2CCCC2)C(F)(F)F)c2cc(F)c(-c3ccccc3C(F)(F)F)cc21 [Example 347, (S)—N-(2,2,2-trifluoro-1-(5-fluoro-1-neopentyl-6-(2-(trifluoromethyl)phenyl)-1H-indol-3-yl)ethyl)pyrrolidine-1-sulfonamide] | – | < 0.5 µM |
| CC(C)(C)Cn1cc(CCNS(=O)(=O)C2CC2)c2ccc(-c3cccc(C#N)c3Cl)cc21 [Example 486, N-(2-(6-(2-chloro-3-cyanophenyl)-1-neopentyl-1H-indol-3-yl)ethyl)cyclopropanesulfonamide] | 0.5 to 3 µM | – |
| CCCn1cc(CCNS(=O)(=O)N(C)C)c2ccc(-c3ccncc3)cc21 [Compound 6] | – | < 0.5 µM |
| CC(C)Cn1cc([C@H](NS(=O)(=O)C2CC2)C(F)(F)F)c2ccc(Cl)cc21 [Example 341, (S)—N-(1-(6-chloro-1-isobutyl-1H-indol-3-yl)-2,2,2-trifluoroethyl)cyclopropanesulfonamide] | – | < 0.5 µM |
| CC(C)Cn1cc(CNS(=O)(=O)CC(C)C)c2ccc(-c3ccncc3)cc21 [Compound 245] | – | < 0.5 µM |
| CC(C)(C)Cn1cc([C@H](NS(=O)(=O)C2CCC2)C(F)F)c2ccc(-c3ccccc3C(F)(F)F)c(F)c21 [Example 552, (S)—N-(2,2-difluoro-1-(7-fluoro-1-neopentyl-6-(2-(trifluoromethyl)phenyl)-1H-indol-3-yl)ethyl)cyclobutanesulfonamide] | < 0.5 µM | – |
| CC(C)Cn1cc(CNS(=O)(=O)C(C)C)c2cc(F)c(-c3ccccc3Cl)cc21 [Compound 267] | – | < 0.5 µM |
| CC(C)(C)Cn1cc([C@H](NS(=O)(=O)C2CC2)C(F)(F)F)c2ccc(-c3ccc(F)cc3C(F)(F)F)cc21 [Example 367, (S)—N-(2,2,2-trifluoro-1-(6-(4-fluoro-2-(trifluoromethyl)phenyl)-1-neopentyl-1H-indol-3-yl)ethyl)cyclopropanesulfonamide] | – | < 0.5 µM |
| CC(C)(C)Cn1cc([C@H](NS(=O)(=O)C2CCC2)C(F)(F)F)c2cc(F)c(-c3cccnc3C#N)cc21 (racemic) [Example 529, (S)—N-(1-(6-(2-cyanopyridin-3-yl)-5-fluoro-1-neopentyl-1H-indol-3-yl)-2,2,2-trifluoroethyl)cyclobutanesulfonamide] | < 0.5 µM | – |
| CC(C)Cn1cc(C(C)CNS(=O)(=O)C2CC2)c2ccc(-c3ccccc3)cc21 (stereo not shown) [Compound 256] | – | > 3 µM |
| CC(C)(C)Cn1cc([C@H](NS(=O)(=O)C2CC2)C(F)(F)F)c2ccc(-c3ccccc3C(F)(F)F)nc21 [Example 491, N-[(1S)-1-[1-(2,2-dimethylpropyl)-6-[2-(trifluoromethyl)phenyl]pyrrolo[2,3-b]pyridin-3-yl]-2,2,2-trifluoro-ethyl]cyclopropanesulfonamide] | < 0.5 µM | – |
